Assay results from patent publication US12582641B2, “Sulfur-containing compound based on glutarimide skeleton and application thereof” (SHANGHAITECH UNIVERSITY, priority 2019, dated 2026).

Tested on: MM.1S cells
Test: Proliferation inhibition (IC50) in MM.1S cells, cell viability assay
Details: Homo sapiens, MM1.S, 72 h, read-out: IC50 (nM), proliferation inhibitory activity of MM.1S cells (half inhibitory concentration)

| IC50 | Structure (SMILES) |
| --- | --- |
| 0.252 nM | CC(C)N(Cc1ccc(CSc2cccc3c2CN(C2CCC(=O)NC2=O)C3=O)cc1)C(C)C (stereo not drawn) [SIAIS1227057, 3-(4-((4-((diisopropylamino)methyl)benzyl)thio)-1-oxoisoindolin-2-yl)piperidine-2,6-dione] |
| 0.022 nM | O=C1CCC(N2Cc3c(SCc4ccc(CN(C5CCCCC5)C5CCCCC5)cc4)cccc3C2=O)C(=O)N1 (stereo not drawn) [SIAIS1227059, 3-(4-((4-((dicyclohexylamino)methyl)benzyl)thio)-1-oxoisoindolin-2-yl)piperidine-2,6-dione] |
| 0.721 nM | O=C1CCC(N2Cc3c(SCc4ccc(CNC56CC7CC(CC(O)(C7)C5)C6)cc4)cccc3C2=O)C(=O)N1 (stereo not drawn) [SIAIS1227061, 3-(4-((4-(((3-hydroxyadamantan-1-yl)amino)methyl)benzyl)thio)-1-oxoisoindolin-2-yl)piperidine-2,6-dione] |
| 0.11 ± 0.02 nM | O=C1CCC(N2Cc3c(SCCCc4ccc(CNC5CCCCC5)cc4)cccc3C2=O)C(=O)N1 (stereo not drawn) [SIAIS1227067, 3-(4-((3-(4-((cyclohexylamino)methyl)phenyl)propyl)thio)-1-oxoisoindolin-2-yl)piperidine-2,6-dione] |
| 1.12 nM | O=C1CCC(N2C(=O)c3cccc(SCCCc4ccc(CNC5CCCCC5)cc4)c3C2=O)C(=O)N1 (stereo not drawn) [SIAIS1227069, 4-((3-(4-((cyclohexylamino)methyl)phenyl)propyl)thio)-2-(2,6-dioxopiperidin-3-yl)isoindoline-1,3-dione] |
| 0.499 nM | O=C1CCC(N2Cc3c(SCCCc4ccc(CN5CCOCC5)cc4)cccc3C2=O)C(=O)N1 (stereo not drawn) [SIAIS1227075, 3-(4-((3-(4-(morpholinomethyl)phenyl)propyl)thio)-1-oxoisoindolin-2-yl)piperidine-2,6-dione] |
| 0.37 nM | O=C1CCC(N2C(=O)c3cccc(SCc4ccc(CCCN5CCCCC5)cc4)c3C2=O)C(=O)N1 (stereo not drawn) [SIAIS1227085, 2-(2,6-dioxopiperidin-3-yl)-4-((4-(3-(piperidin-1-yl)propyl)benzyl)thio)isoindoline-1,3-dione] |
| 0.283 nM | O=C1CCC(N2C(=O)c3cccc(SCc4ccc(CCCNC5CCCCC5)cc4)c3C2=O)C(=O)N1 (stereo not drawn) [SIAIS1227087, 4-((4-(3-(cyclohexylamino)propyl)benzyl)thio)-2-(2,6-dioxopiperidin-3-yl)isoindoline-1,3-dione] |
| 2 nM | O=C1CCC(N2C(=O)c3cccc(SCc4ccc(CCCN5CCOCC5)cc4)c3C2=O)C(=O)N1 (stereo not drawn) [SIAIS1227091, 2-(2,6-dioxopiperidin-3-yl)-4-((4-(3-morpholinopropyl)benzyl)thio) isoindoline-1,3-dione] |
| 0.163 nM | CCN(CC)CCc1ccc(CSc2cccc3c2CN(C2CCC(=O)NC2=O)C3=O)cc1 (stereo not drawn) [SIAIS1227097, 3-(4-((4-(2-(diethylamino)ethyl)benzyl)thio)-1-oxoisoindolin-2-yl)piperidine-2,6-dione] |
| 0.311 nM | CN1CCN(CCc2ccc(CSc3cccc4c3CN(C3CCC(=O)NC3=O)C4=O)cc2)CC1 (stereo not drawn) [SIAIS1227099, 3-(4-((4-(2-(4-methylpiperazin-1-yl)ethyl)benzyl)thio)-1-oxoisoindolin-2-yl)piperidine-2,6-dione] |
| 0.02 nM | CC1(C)CCC(NCCc2ccc(CSc3cccc4c3CN(C3CCC(=O)NC3=O)C4=O)cc2)CC1 (stereo not drawn) [SIAIS1227103, 3-(4-((4-(2-((4,4-dimethylcyclohexyl)amino)ethyl)benzyl)thio)-1-oxoisoindolin-2-yl)piperidine-2,6-dione] |
| 0.05 ± 0.01 nM | CC1(C)CCC(NCc2ccc(CSc3cccc4c3CN(C3CCC(=O)NC3=O)C4=O)cc2)CC1 (stereo not drawn) [SIAIS1227105, 3-(4-((4-(((4,4-dimethylcyclohexyl)amino)methyl)benzyl)thio)-1-oxoisoindolin-2-yl)piperidine-2,6-dione] |
| 0.27 ± 0.07 nM | CC(C)(C)NCc1ccc(CSc2cccc3c2CN(C2CCC(=O)NC2=O)C3=O)cc1 (stereo not drawn) [SIAIS1227107, 3-(4-((4-((tert-butylamino)methyl)benzyl)thio)-1-oxoisoindolin-2-yl)piperidine-2,6-dione] |
| 0.03 ± 0.004 nM | O=C1CCC(N2Cc3c(SCc4ccc(CN5CCCCCCC5)cc4)cccc3C2=O)C(=O)N1 (stereo not drawn) [SIAIS1227109, 3-(4-((4-(azocan-1-ylmethyl)benzyl)thio)-1-oxoisoindolin-2-yl)piperidine-2,6-dione] |
| 0.03 ± 0.01 nM | CC1(C)CCN(Cc2ccc(CSc3cccc4c3CN(C3CCC(=O)NC3=O)C4=O)cc2)CC1 (stereo not drawn) [SIAIS1227113, 3-(4-((4-((4,4-dimethylpiperidin-1-yl)methyl)benzyl)thio)-1-oxoisoindolin-2-yl)piperidine-2,6-dione] |
| 0.04 ± 0.01 nM | O=C1CCC(N2Cc3c(SCc4ccc(CN5CCC6(CC5)CC6)cc4)cccc3C2=O)C(=O)N1 (stereo not drawn) [SIAIS1227115, 3-(4-((4-((6-azaspiro[2.5]octan-6-yl)methyl)benzyl)thio)-1-oxoisoindolin-2-yl)piperidine-2,6-dione] |
| 0.2 ± 0.08 nM | CC1CC(C)CN(Cc2ccc(CSc3cccc4c3CN(C3CCC(=O)NC3=O)C4=O)cc2)C1 (stereo not drawn) [SIAIS1227117, 3-(4-((4-((3,5-dimethylpiperidin-1-yl)methyl)benzyl)thio)-1-oxoisoindolin-2-yl)piperidine-2,6-dione] |

| IC50 | Structure (SMILES) |
| --- | --- |
| 0.2 nM | O=C1CCC(N2Cc3c(SCc4ccc(CN5CCC6(CCCCC6)CC5)cc4)cccc3C2=O)C(=O)N1 (stereo not drawn) [SIAIS1227119, 3-(4-((4-((3-azaspiro[5.5]undecan-3-yl)methyl)benzyl)thio)-1-oxoisoindolin-2-yl)piperidine-2,6-dione] |
| 0.89 ± 0.22 nM | O=C1CCC(N2Cc3c(SCc4cccc(CN5CCCCC5)c4)cccc3C2=O)C(=O)N1 (stereo not drawn) [SIAIS1227131, 3-(1-oxo-4-((3-(piperidin-1-ylmethyl)benzyl)thio)isoindolin-2-yl)piperidine-2,6-dione] |
| 0.13 ± 0.07 nM | O=C1CCC(N2Cc3c(SCc4cccc(CNC5CCCCC5)c4)cccc3C2=O)C(=O)N1 (stereo not drawn) [SIAIS1227133, 3-(4-((3-((cyclohexylamino)methyl)benzyl)thio)-1-oxoisoindolin-2-yl)piperidine-2,6-dione] |
| 0.03 ± 0.01 nM | O=C1CCC(N2Cc3c(SCc4cccc(CNC56CC7CC(CC(C7)C5)C6)c4)cccc3C2=O)C(=O)N1 (stereo not drawn) [SIAIS1227135, 3-(4-((3-(((adamantan-1-yl)amino)methyl)benzyl)thio)-1-oxoisoindolin-2-yl)piperidine-2,6-dione] |
| 1.04 ± 0.49 nM | O=C1CCC(N2Cc3c(SCc4cccc(CN5CCOCC5)c4)cccc3C2=O)C(=O)N1 (stereo not drawn) [SIAIS1227137, 3-(4-((3-(morpholinomethyl)benzyl)thio)-1-oxoisoindolin-2-yl)piperidine-2,6-dione] |
| 1.04 ± 0.21 nM | O=C1CCC(N2Cc3c(SCc4cc(Br)c(CN5CCCCC5)cc4Br)cccc3C2=O)C(=O)N1 (stereo not drawn) [SIAIS1227139, 3-(4-((2,5-dibromo-4-(piperidin-1-ylmethyl)benzyl)thio)-1-oxoisoindolin-2-yl)piperidine-2,6-dione] |
| 4.98 ± 0.99 nM | O=C1CCC(N2Cc3c(SCc4cc(Br)c(CNC5CCCCC5)cc4Br)cccc3C2=O)C(=O)N1 (stereo not drawn) [SIAIS1227141, 3-(4-((2,5-dibromo-4-((cyclohexylamino)methyl)benzyl)thio)-1-oxoisoindolin-2-yl)piperidine-2,6-dione] |
| 0.11 ± 0.17 nM | O=C1CCC(N2Cc3c(SCc4cc(Br)c(CNC56CC7CC(CC(C7)C5)C6)cc4Br)cccc3C2=O)C(=O)N1 (stereo not drawn) [SIAIS1227143, 3-(4-((4-(((adamantan-1-yl)amino)methyl)-2,5-dibromobenzyl)thio)-1-oxoisoindolin-2-yl)piperidine-2,6-dione] |
| 0.02 nM | O=C1CCC(N2Cc3c(SCc4ccc(CCN5CCCCCCC5)cc4)cccc3C2=O)C(=O)N1 (stereo not drawn) [SIAIS1227159, 3-(4-((4-(2-(azocan-1-yl)ethyl)benzyl)thio)-1-oxoisoindolin-2-yl)piperidine-2,6-dione] |
| 0.025 nM | O=C1CCC(N2Cc3c(SCc4ccc(CCN5CCC(F)(F)CC5)cc4)cccc3C2=O)C(=O)N1 (stereo not drawn) [SIAIS1227161, 3-(4-((4-(2-(4,4-difluoropiperidin-1-yl)ethyl)benzyl)thio)-1-oxoisoindolin-2-yl)piperidine-2,6-dione] |
| 0.021 nM | O=C1CCC(N2Cc3c(SCc4ccc(CCN5CCC6(CC5)CC6)cc4)cccc3C2=O)C(=O)N1 (stereo not drawn) [SIAIS1227163, 3-(4-((4-(2-(6-azaspiro[2.5]octan-6-yl)ethyl)benzyl)thio)-1-oxoisoindolin-2-yl)piperidine-2,6-dione] |
| 0.023 nM | CC1CC(C)CN(CCc2ccc(CSc3cccc4c3CN(C3CCC(=O)NC3=O)C4=O)cc2)C1 (stereo not drawn) [SIAIS1227165, 3-(4-((4-(2-(3,5-dimethylpiperidin-1-yl)ethyl)benzyl)thio)-1-oxoisoindolin-2-yl)piperidine-2,6-dione] |
| 0.064 nM | O=C1CCC(N2Cc3c(SCc4ccc(CN5CCC(F)(F)CC5)cc4)cccc3C2=O)C(=O)N1 (stereo not drawn) [SIAIS1227167, 3-(4-((4-((4,4-difluoropiperidin-1-yl)methyl)benzyl)thio)-1-oxoisoindolin-2-yl)piperidine-2,6-dione] |
| 0.12 nM | CN1CCN(Cc2ccc(CSc3cccc4c3CN(C3CCC(=O)NC3=O)C4=O)cc2)CC1 (stereo not drawn) [SIAIS1227169, 3-(4-((4-((4-methylpiperazin-1-yl)methyl)benzyl)thio)-1-oxoisoindolin-2-yl)piperidine-2,6-dione] |
| 0.021 nM | O=C1CCC(N2Cc3c(SCc4ccc(CN5C[C@H]6CCCC[C@H]6C5)cc4)cccc3C2=O)C(=O)N1 (stereo partly drawn) [SIAIS1227171, 3-(4-((4-(((3aR,7aS)-octahydro-2H-isoindol-2-yl)methyl)benzyl)thio)-1-oxoisoindolin-2-yl)piperidine-2,6-dione] |
| 0.095 nM | C[C@@H](NCc1ccc(CSc2cccc3c2CN(C2CCC(=O)NC2=O)C3=O)cc1)C1CC1 (stereo partly drawn) [SIAIS1227173, 3-(4-((4-((((R)-1-cyclopropylethyl)amino)methyl)benzyl)thio)-1-oxoisoindolin-2-yl)piperidine-2,6-dione] |
| 0.073 nM | O=C1CCC(N2Cc3c(SCc4ccc(CN5CCCCC5)cc4F)cccc3C2=O)C(=O)N1 (stereo not drawn) [SIAIS1227175, 3-(4-((2-fluoro-4-(piperidin-1-ylmethyl)benzyl)thio)-1-oxoisoindolin-2-yl)piperidine-2,6-dione] |
| 0.097 nM | O=C1CCC(N2Cc3c(SCc4ccc(CNC5CCCCC5)cc4F)cccc3C2=O)C(=O)N1 (stereo not drawn) [SIAIS1227177, 3-(4-((4-((cyclohexylamino)methyl)-2-fluorobenzyl)thio)-1-oxoisoindolin-2-yl)piperidine-2,6-dione] |
